Data from US9238040B2, “Chemoprevention of colorectal cancer by mesalamine/sulfasalazine” (RUTGERS, THE STATE UNIVERSITY OF NEW JERSEY, priority 2005, dated 2016).

Key:
[1] = system: LS180 cells; test: Microarray analysis of gene expression in LS180 cells; type: cell-based, human; details: 200 mM, 4 hours and 24 hours, compared with 5-ASA untreated LS180 cells
[2] = system: TC22; test: FACS of TC22 expression in LS180 colon cancer cells (antibody TC22-4); type: cell-based, human; details: 4 hours, Serum Free Media
Experimental: Specific monoclonal antibodies, CG3 for hTM5 and TC22-4 for TC22 were used against the cells in a fluorescent activated cell sorter (FACS). Reverse transcriptase PCR (RT-PCR) was utilized to quantify the transcription of hTM5 and TC-22. […] Dishes were washed with 10 ml PBS 3 times. Cells were detached with 0.25% trypsin-EDTA and collected. All cells were >90% viable. The cells were washed and then fixed by using 4% paraformaldehyde for 5 minutes. Cells were washed 2 times. Cells were then resuspended and the first antibody was added: MOPC IgM(0.5 mg/mL) 1 μl (1:100), MOPCIgG(0.5 mg/mL) 1 μl (1:100), CG3 IgM(2.4 mg/mL) 1 μL of (2+3 μL Buffer) (1:250) for hTM5, TC22-4 IgG(30 mg/mL) 1 μL of (1+9 uL Buffer) (1:1000) for TC22. The suspension was incubated at 4° C. for 30 minutes, shaken and washed (2 times) with 30 vol. of PBS/0.5 BSA/2 mm EDTA. The second antibody was added: 1 μl tube (1:100) Cy2 (Cyanine)-conj. G-α-M IgM or Cy2 (Cyanine)-conj. G-α-M IgM, then incubated at 4° C. for 30 minutes, shaken and washed (2 times) with 100 vol. buffer 2 times. The cells were then resuspended in 1 ml wash buffer. FACS was used to detect hTM5 and TC22 expression within 1 hour. […] The graphs show the number of cells as a function of fluorescence intensity. LM1 represents the percent of cells present but not expressing TC22. LM2 represents the percent of cells containing TC22.

Nc1ccc(O)c(C(=O)O)c1 [5-ASA, 5-Aminosalicylic Acid]
Number of genes down-regulated [1]: >385 | Number of genes up-regulated [1]: >194 | expression of TC22 (FACS, FIG. 1f) [2]: reduced the expression of TC22
